Legend:
[1] = system: α-Glucosidase from Saccharomyces cerevisiae; test: α-glucosidase inhibition assay (pNPG substrate); type: biochemical; conditions: for % inhibition R1: replicate 1; for % inhibition R3: replicate 3; for % Inhibition: fixed concentration of 100 µM, mean of triplicate (± SD); for Observation (activity level, Table S9) / Observation (inhibition level, Table S7): words, based on % inhibition at 100 µM; for IC50: dose-response, mean ± SD
Procedure: The α-glucosidase inhibitory activity of 4a–j was evaluated using a standard enzymatic assay. α-Glucosidase from Saccharomyces cerevisiae was employed as the enzyme source, and p-nitrophenyl-α-D-glucopyranoside (pNPG) served as the substrate. The assay was conducted in a 96-well microplate format at 37 °C in 50 mM phosphate buffer (pH 6.8). Briefly, 10 µL of the test compound (dissolved in DMSO) at various concentrations was mixed with 20 µL of the enzyme solution (1 U/mL) and 50 µL of phosphate buffer. The reaction was initiated by adding 20 µL of pNPG (5 mM), and the mixture was incubated for 30 min. The reaction was terminated by adding 50 µL of 0.1 M Na2CO3, and the absorbance of the released p-nitrophenol was measured at […] using a microplate reader. […] All experiments were performed in triplicate, and the results were expressed as mean ± standard deviation (SD). Statistical significance was evaluated using one-way ANOVA followed by Tukey’s post hoc test.

α-glucosidase = target: α-glucosidase; design: method as in PMID 26398141; conditions: cited from earlier work

Row | Compound | % inhibition R1 ([1]; 100 µM) [%] | % inhibition R3 ([1]; 100 µM) [%] | % Inhibition [1] [%] | Observation (activity level, Table S9) [1] | Observation (inhibition level, Table S7) [1] | % Inhibition ([1]; 100 µM) [%] | IC50 [1] [µM] | IC50 (α-glucosidase) [µM]
1 | COc1ccc2[nH]c(C(=O)N/N=C/c3nccs3)cc2c1 [4a, (E)-5-Methoxy-N’-(thiazol-2-ylmethylene)-1H-indole-2-carbohydrazide] | 41.141 | 33.393 | 31.75 ± 8.42 | Low activity | Low inhibition | – | – | –
2 | COc1ccc2[nH]c(C(=O)N/N=C/c3cccnc3)cc2c1 [4b, (E)-5-Methoxy-N’-(pyridin-3-ylmethylene)-1H-indole-2-carbohydrazide] | 34.129 | 27.265 | – | Low activity | Low inhibition | 25.37 | – | –
3 | COc1ccc2[nH]c(C(=O)N/N=C/c3ccc(O)cc3)cc2c1 [4c, (E)-N’-(4-Hydroxybenzylidene)-5-methoxy-1H-indole-2-carbohydrazide] | 39.907 | 37.768 | 32.51 ± 8.99 | Moderate activity | Moderate inhibition | – | – | –
4 | COc1ccc2[nH]c(C(=O)N/N=C/c3ccc(O)c([N+](=O)[O-])c3)cc2c1 [4d, (E)-N’-(4-Hydroxy-3-nitrobenzylidene)-5-methoxy-1H-indole-2-carbohydrazide] | 37.425 | 28.540 | 27.97 ± 7.96 | Low activity | Low inhibition | – | – | –
5 | O=C(N/N=C/c1cc(O)c(O)c(O)c1)c1cc2ccccc2[nH]1 [(E)-N’-(3,4,5-Trihydroxybenzylidene)-1H-indole-2-carbohydrazide] | – | – | – | – | – | – | – | 2.3
6 | C[C@H]1O[C@H](O[C@H]2[C@H](O)[C@@H](O)[C@@H](O[C@H]3[C@H](O)[C@@H](O)C(O)O[C@@H]3CO)O[C@@H]2CO)[C@H](O)[C@@H](O)[C@@H]1N[C@H]1C=C(CO)[C@@H](O)[C@H](O)[C@H]1O (stereo partly shown) [Acarbose, acarbose, reference compound] | 84.457 | 85.609 | 84.66 ± 0.71 | – | – | – | – | –

Now from value to compound, other results behind:

Row | % inhibition R1 ([1]; 100 µM) [%] | % inhibition R3 ([1]; 100 µM) [%] | % Inhibition [1] [%] | Observation (activity level, Table S9) [1] | Observation (inhibition level, Table S7) [1] | % Inhibition ([1]; 100 µM) [%] | IC50 [1] [µM] | Compound | IC50 (α-glucosidase) [µM]
7 | 87.826 | 81.926 | 82.21 ± 4.47 | High activity | Good inhibition | – | 16.42 ± 0.08 | COc1ccc(/C=N/NC(=O)c2cc3cc(OC)ccc3[nH]2)c(O)c1 [4e, (E)-N’-(2-Hydroxy-4-methoxybenzylidene)-5-methoxy-1H-indole-2-carbohydrazide] | –
8 | 54.885 | 51.513 | 50.65 ± 3.86 | Moderate activity | Moderate inhibition | – | – | COc1ccc2[nH]c(C(=O)N/N=C/c3ccccc3F)cc2c1 [4f, (E)-N’-(2-Fluorobenzylidene)-5-methoxy-1H-indole-2-carbohydrazide] | –
9 | 92.817 | 90.041 | 91.06 ± 1.25 | High activity | High inhibition | – | 10.89 ± 0.08 | COc1ccc2[nH]c(C(=O)N/N=C/c3cccc(Br)c3)cc2c1 [4g, (E)-N’-(3-Bromobenzylidene)-5-methoxy-1H-indole-2-carbohydrazide] | –
10 | 90.888 | 88.949 | 89.11 ± 1.39 | High activity | High inhibition | – | 14.5 ± 0.76 | COc1ccc2[nH]c(C(=O)N/N=C/c3ccc([N+](=O)[O-])cc3)cc2c1 [4h, (E)-5-Methoxy-N’-(4-nitrobenzylidene)-1H-indole-2-carbohydrazide] | –
11 | 84.106 | 84.052 | 82.73 ± 1.90 | High activity | Good inhibition | – | 19.5 ± 1.37 | COc1ccc2[nH]c(C(=O)N/N=C/c3ccc4ccccc4c3)cc2c1 [4i, (E)-5-Methoxy-N’-(naphthalen-2-ylmethylene)-1H-indole-2-carbohydrazide] | –
12 | 56.471 | 49.039 | 53.23 ± 3.11 | Moderate activity | Moderate inhibition | – | – | COc1ccc2[nH]c(C(=O)N/N=C/c3ccccc3)cc2c1 [4j, (E)-N’-Benzylidene-5-methoxy-1H-indole-2-carbohydrazide] | –
